We go through 87 compounds from ChEMBL document CHEMBL3227967, “Quantitative structure-activity relationships in 1-aryl-2-(alkylamino)ethanol antimalarials” (J Med Chem, 1979).

In this assay the test system is Plasmodium berghei. As to the kind of experiment: Antimalarial activity against Plasmodium berghei. The class given is functional.
Consider `CCCCN(CCCC)CC(O)c1cc(-c2ccc(Cl)c(Cl)c2)cc2cc(Cl)ccc12` (configuration not stated), for which the “log(1/C)” value came out at 4.81. To `OC(CN1CCCCC1)c1cc(-c2ccccc2)nc2c(Cl)cc(Cl)cc12` (configuration not stated) belongs 3.17; to `CCCCCCCN(CCCCCCC)CC(O)c1cccc2cc3ccccc3cc12` (configuration not stated), 2.99; to `FC(F)(F)c1cc(C2CCCCN2)c2ccc3ccccc3c2n1.OC(CC1CCCCN1)c1cc(C(F)(F)F)nc2c1ccc1ccccc12` (configuration not stated), 3.44.

With `CCCCN(CCCC)CC(O)c1c(OC)c2cc(Br)ccc2c2ccc(Br)cc12` (configuration not stated), the “log(1/C)” value is 3.94.

Consider `CCCN(CCC)CC(O)c1cc2cc(Br)ccc2c2cc(Br)ccc12` (configuration not stated), for which the “log(1/C)” value stood at 4.27. Next, `CCCCN(CCCC)CC(O)c1cc2cc(Cl)ccc2c2ccccc12` (configuration not stated): 3.01; `OC(CC1CCCNC1)c1cc2ccc(C(F)(F)F)cc2c2cc(C(F)(F)F)ccc12` (configuration not stated): 3.89. Take `CCCCN(CCCC)CC(O)c1cc(C(=O)c2cccc(Cl)c2)nc2c(C(F)(F)F)cc(Cl)cc12` (configuration not stated): the “log(1/C)” value was determined as 3.98. Next, `CCCCN(CCCC)CC(O)c1cc(-c2ccc(OC)cc2)nc(-c2ccc(OC)cc2)c1` (configuration not stated): 2.17. To `CCCCN(CCCC)CC(O)c1cc(Cl)cc2ccc(-c3ccc(Cl)cc3)nc12` (configuration not stated) belongs 2.9; to `CCCCCCCN(CCCCCCC)CC(O)c1cc2ccncc2c2ccccc12` (configuration not stated), 2.33. Next, `CCCCCCCN(CCCCCCC)CC(O)c1cc2c(Cl)cc(Cl)cc2c2cc(C)sc12` (configuration not stated): 3.48; `OC(CC1CCCCN1)c1cc(-c2ccc(Cl)cc2)nc2c(Cl)cc(Cl)cc12` (configuration not stated): 3.97. As to `CN(Cc1ccccc1)CC(O)c1cc(-c2cccs2)nc2cccc(Br)c12` (configuration not stated), the “log(1/C)” value was determined as 2.26. To `CCCCN(CCCC)CC(O)c1c2ccccc2c(Cl)c2ccccc12` (configuration not stated) belongs 3.51. To `CCCCCCN(CCCCCC)CC(O)c1cc(-c2ccc(OC)cc2)nc2cc(OC)c(Cl)cc12` (configuration not stated) belongs 2.64. Regarding `CCCCCCCN(CCCCCCC)CC(O)c1cc2ccccc2c2cc(F)ccc12` (configuration not stated), the “log(1/C)” value stood at 3.08.

For `CCCCN(CCCC)CC(O)c1cc(-c2ccc(Cl)cc2)cc2cc(Cl)ccc12` (configuration not stated), the “log(1/C)” value came out at 4.24.

On to `CCCCN(CCCC)CC(O)c1cc(/C=C/c2ccc(C(F)(F)F)cc2)nc(/C=C/c2ccc(C(F)(F)F)cc2)c1` (configuration not stated), for which the “log(1/C)” value was found to be 3.82. For the compound `OC(CC1CCCCN1)c1cc2ccc(C(F)(F)F)cc2c2cc(Br)ccc12` (configuration not stated), the “log(1/C)” value is reported as 3.86. Next, `CCCCCCCN(CCCCCCC)CC(O)c1cc2ccc(Cl)cc2c2cc(Cl)ccc12` (configuration not stated): 3.12; `CCCCCCCN(CCCCCCC)CC(O)c1cc(-c2ccc(Cl)cc2)cc2ccccc12` (configuration not stated): 3.35.

Regarding `CCCCCCCN(CCCCCCC)CC(O)c1cccc2ccc3ccccc3c12` (configuration not stated), the “log(1/C)” value was found to be 2.19. Next, `CCCCN(CCCC)CC(O)c1cc(-c2ccc(Cl)cc2)nc2c(C)cc(C)cc12` (configuration not stated): 3.9; `CCCCCCCN(CCCCCCC)CC(O)c1c(Br)ccc2c1ccc1ccccc12` (configuration not stated): 2.5. For `CCCCNCC(O)c1cc(/C=C/c2ccc(C(F)(F)F)cc2)nc(-c2ccc(C(F)(F)F)cc2)c1` (configuration not stated), the “log(1/C)” value is given as 3.89.

With `OC(CNC1CCCCC1)c1cc2ccc(C(F)(F)F)cc2c2cc(C(F)(F)F)ccc12` (configuration not stated), the “log(1/C)” value is 3.72. To `OC(CC1CCCCN1)c1c2c(nc3c(Cl)cc(Cl)cc13)-c1cccc(Cl)c1CC2` (configuration not stated) belongs 3.6.

Regarding `CCCCN(CCCC)CC(O)c1cc(-c2ccccc2)nc2ccccc12` (configuration not stated), the “log(1/C)” value is reported as 2.54. Next, `CCCCN(CCCC)CC(O)c1c(C)c2ccccc2c2ccccc12` (configuration not stated): 2.79; `CCCCN(CCCC)CC(O)c1cc(-c2ccc(Cl)cc2Cl)nc2c(Cl)cc(Cl)cc12` (configuration not stated): 3.66.

On to `CCNCC(O)c1cc2ccc(C(F)(F)F)cc2c2cc(C(F)(F)F)ccc12` (configuration not stated), for which the “log(1/C)” value was 4.39.

With `CCCCCCCN(CCCCCCC)CC(O)c1cc2ccc(Cl)cc2c2ccccc12` (configuration not stated), the “log(1/C)” value came to 2.44. To `CCCCCCN(CCCCCC)CC(O)c1cccc2c1cc(Cl)c1ccccc12` (configuration not stated) belongs 2.39; to `Cc1cc(C)c2nc(C(F)(F)F)cc(C(O)CC3CCCCN3)c2c1` (configuration not stated), 2.93. Take `OC(C[N+]12CCC(CC1)CC2)c1cc2ccc(Cl)cc2c2cc(Cl)ccc12` (configuration not stated): the “log(1/C)” value amounted to 2.98. Next, `OC(CC1CCCN1)c1cc(-c2ccccc2)nc2ccccc12` (configuration not stated): 2.26; `CCCCN(CCCC)CC(O)c1cc(-c2ccc(Cl)cc2)nc2cc(Cl)ccc12` (configuration not stated): 3.91. Turning to `CCCCN(CCCC)CC(O)c1cc(-c2ccc(Cl)cc2)nc(-c2ccc(C(F)(F)F)cc2)c1` (configuration not stated), the “log(1/C)” value is on record as 3.43. Next, `CCCN(CCC)CC(O)c1cc2cc(C(F)(F)F)cc(C(F)(F)F)c2c2ccccc12` (configuration not stated): 4.31. To `OC(CC1CCCCN1)c1cc2cccc(C(F)(F)F)c2c2ccc(Cl)cc12` (configuration not stated) belongs 3.66.

`CCCCNCC(O)c1cc(-c2ccccc2C(F)(F)F)nc(C(F)(F)F)c1` (configuration not stated): the “log(1/C)” value is 3.78.

Regarding `OC(CC1CCCCN1)c1cc(-c2ccc(C(F)(F)F)cc2)nc(C(F)(F)F)c1` (configuration not stated), the “log(1/C)” value is 4.32. Next, `CCCC(CCC)NCC(O)c1cc(-c2ccc(Cl)cc2)nc(-c2ccc(Cl)cc2)c1` (configuration not stated): 4.13.

Regarding `CCCCN(CCCC)CC(O)c1cc(Oc2cccc(C(F)(F)F)c2)cc2c(Cl)cc(Cl)cc12` (configuration not stated), the “log(1/C)” value is reported as 2.52. Next, `CCCCN(CCCC)CC(O)c1cc2cc(Cl)cc(Cl)c2c2cc(SC)ccc12` (configuration not stated): 3.88; `CCCCCCCN(CCCCCCC)CC(O)c1c2ccccc2cc2ccccc12` (configuration not stated): 3.07.

As for `CCCCCN(CCCCC)CC(O)c1cc(-c2ccc(C(F)(F)F)cc2)nc(-c2ccc(C(F)(F)F)cc2)c1` (configuration not stated), the “log(1/C)” value was found to be 3.97. In the case of `CCCN(CCC)CC(O)c1cc2cc(Cl)ccc2c2cc(Cl)ccc12` (configuration not stated), the “log(1/C)” value is 4.06. For the compound `CCCCNCC(O)c1cc(-c2ccc(Cl)cc2)nc(-c2ccc(Cl)cc2)c1` (configuration not stated), the “log(1/C)” value is 3.56. To `CCCCN(CCCC)CC(O)c1cc(-c2ccc(C(F)(F)F)cc2)nc(-c2ccc(Cl)c(Cl)c2)c1` (configuration not stated) belongs 3.16. To `CCCCN(CCCC)CC(O)c1cc(-c2ccc(Cl)cc2)nc2ccccc12` (configuration not stated) belongs 2.73.

Consider `CCCCN(CCCC)CC(O)c1cc(Oc2cccc(C(C)(F)F)c2)nc2c(Cl)cc(Cl)cc12` (configuration not stated), for which the “log(1/C)” value is 2.76. To `CCCCN(CCCC)CC(O)c1c2ccccc2c(Br)c2ccccc12` (configuration not stated) belongs 2.88; to `OC(CN1CCOCC1)c1cc(-c2ccccc2)nc2c(Cl)cc(Cl)cc12` (configuration not stated), 2.23; to `C=C[C@H]1CN2CC[C@H]1C[C@H]2[C@H](O)c1cc(-c2ccccc2)nc2ccc(OC)cc12`, 2.72. Next, `OC(CC1CCCCN1)c1cc2ccccc2c2cc(Br)ccc12` (configuration not stated): 3.49. Next, `CCCCCCCNCC(O)c1cc(-c2ccc(C(F)(F)F)cc2)nc(-c2ccc(C(F)(F)F)cc2)c1` (configuration not stated): 3.67; `NC(=O)c1cc(C(O)CC2CCCCN2)c2cccc(C(F)(F)F)c2n1` (configuration not stated): 2.42; `CCCCN(CCCC)CC(O)c1cc2cc(Br)ccc2c2cc(Br)ccc12` (configuration not stated): 4.17.

With `CCCCN(CCCC)CC(O)c1cc(-c2ccc(Cl)c(Cl)c2)nc2ccc(OC)cc12` (configuration not stated), the “log(1/C)” value came to 3.33. Next, `COc1ccc(OC)c2c(C(O)CNC34CC5CC(CC(C5)C3)C4)cc(-c3ccc(Cl)cc3)nc12` (configuration not stated): 2.48.

Turning to `CCCN(CCC)CC(O)c1cc2cc(Br)cc(Br)c2c2cc(C(F)(F)F)ccc12` (configuration not stated), the “log(1/C)” value amounted to 4.24. Next, `CCCCCNCC(O)c1cc(-c2ccc(C(F)(F)F)cc2)nc(-c2ccc(C(F)(F)F)cc2)c1` (configuration not stated): 4.17; `CCCCN(CCCC)CC(O)c1cc2ccncc2c2c(Cl)cc(Cl)cc12` (configuration not stated): 2.57. Next, `CCCCN(CCCC)CC(O)c1cc2ccccc2c2cc(F)ccc12` (configuration not stated): 2.58; `CCCCCCN(CCCCCC)CC(O)c1cc(-c2ccc(Cl)cc2)nc2cc(Cl)ccc12` (configuration not stated): 3.28. To `CCCCN(CCCC)CC(O)c1cc(-c2ccc(Cl)cc2)nc2c(C(F)(F)F)cc(Cl)cc12` (configuration not stated) belongs 4.61. Take `CCN(CC)CC(O)c1cc(-c2ccc(OC)c(OC)c2)nc2cc(Cl)ccc12` (configuration not stated): the “log(1/C)” value came out at 2.81. As for `CCCCN(CCCC)CC(O)c1cc(-c2cccc(I)c2)nc2c(Cl)cc(Cl)cc12` (configuration not stated), the “log(1/C)” value was 3.16. Next, `CCCCCCCN(CCCCCCC)CC(O)c1cc2ccc(C(F)(F)F)cc2c2sccc12` (configuration not stated): 3.36; `CCCCN(CCCC)CC(O)c1c(C)cnc2c1cc(Cl)c1ccccc12` (configuration not stated): 2.38; `CCCCNc1cc(C(O)CC2CCCCN2)c2ccccc2n1` (configuration not stated): 2.41.

With `CCCN(CCC)CC(O)c1cc2ccc(C(F)(F)F)cc2c2ccsc12` (configuration not stated), the “log(1/C)” value is 2.82. For the compound `CC[C@H]1CN2CC[C@H]1C[C@H]2[C@H](O)c1ccnc2ccc(OC)cc12` [HYDROQUININE], the “log(1/C)” value turned out to be 2.04. Next, `OC(CN1CCCCCC1)c1cc(-c2cccs2)nc2cccc(Br)c12` (configuration not stated): 2.89. As for `CCCCN(CCCC)CC(O)c1cc2cc(Cl)cc(Cl)c2c2ccc(Cl)cc12` (configuration not stated), the “log(1/C)” value amounted to 4.12. For the compound `CCCCN(CCCC)CC(O)c1cc2cc(Cl)c(Cl)cc2c2c(Cl)c(Cl)ccc12` (configuration not stated), the “log(1/C)” value is 4.18. Next, `CCCCCCCN(CCCCCCC)CC(O)c1cc2c(Cl)cc(Cl)cc2c2cc(Cl)sc12` (configuration not stated): 2.67; `CCCCCCCN(CCCCCCC)CC(O)c1cc(Cl)cc2cc3ccccc3cc12` (configuration not stated): 3.1; `OC(CCC1CCCCN1)c1cc2ccc(Cl)cc2c2cc(Cl)ccc12` (configuration not stated): 3.89. Regarding `CCCCN(CCCC)CC(O)c1cc(-c2ccc(C(F)(F)F)cc2)nc(-c2ccc(C(F)(F)F)cc2)c1.O=C(O)CCC(=O)O` (configuration not stated), the “log(1/C)” value worked out at 4.23. To `CCCCN(CCCC)CC(O)c1cccc2cc3cc(Cl)c(Cl)cc3cc12` (configuration not stated) belongs 2.48. To `OC(CC1CCCCN1)c1cc2cc(C(F)(F)F)cc(C(F)(F)F)c2c2cc(Cl)ccc12` (configuration not stated) belongs 4.72; to `OC(CC1CCCCN1)c1cc2c(Cl)cc(Cl)cc2c2ccc(Cl)cc12` (configuration not stated), 3.79. To `CCCCN(CCCC)CC(O)c1cc(-c2ccc(Br)cc2)nc(-c2ccc(C(F)(F)F)cc2)c1` (configuration not stated) belongs 3.62.
